MIC and Ratio data for 18 compounds are collected here from ChEMBL document CHEMBL4665851, “Design, synthesis, antimycobacterial activity and molecular docking studies of novel 3- (N-substituted glycinamido) benzoic acid analogues as anti tubercular agents” (Bioorg Med Chem Lett, 2020).

Holding throughout (conditions): time 5.0 day
The test system of assay [1] is Mycobacterium tuberculosis H37Rv. Briefly: Inhibition of MmA1 in Mycobacterium tuberculosis H37Rv assessed as reduction in bacterial growth incubated for 5 days by MABA assay. (In general: The colour change of resazurin is a common sign of viable cells or microbes.)
For assay [2] the test system is unchanged. Briefly: Potency index, ratio of pyrazinamide MIC to test compound MIC for Inhibition of MmA1-mediated antitubercular activity against Mycobacterium tuberculosis H37Rv incubated for 5 days by MABA assay.
The test system is the same in assay [3]. Briefly: Potency index, ratio of ciprofloxacin MIC to test compound MIC for Inhibition of MmA1-mediated antitubercular activity against Mycobacterium tuberculosis H37Rv incubated for 5 days by MABA assay.
The test system is the same in assay [4]. The assay can be described thus: Potency index, ratio of streptomycin MIC to test compound MIC for Inhibition of MmA1-mediated antitubercular activity against Mycobacterium tuberculosis H37Rv incubated for 5 days by MABA assay.

≈ marks a conversion by molar mass, not a printed value.

On to `O=C(CNc1ccccn1)Nc1cccc(C(=O)O)c1`, for which, in assay [1], the MIC was 12.5 µg/mL (≈ 46.1 µM). Consider `O=C(Cn1ccnc1)Nc1cccc(C(=O)O)c1`, for which the MIC in assay [1] came out at 12.5 µg/mL (≈ 51 µM). `O=C(CNc1ccc(F)cc1F)Nc1cccc(C(=O)O)c1`: in assay [1], the MIC was 1.6 µg/mL (≈ 5.22 µM). Moreover, the Ratio in assay [2], in assay [3] and in assay [4] was more than 2 throughout. For `O=C(CNc1ccccc1)Nc1cccc(C(=O)O)c1`, the MIC in assay [1] is 6.25 µg/mL (≈ 23.1 µM).

In the case of `O=C(CN1CCCCC1)Nc1cccc(C(=O)O)c1`, the MIC in assay [1] was found to be 1.6 µg/mL (≈ 6.1 µM). In addition, the Ratio in assay [2], in assay [3] and in assay [4] was more than 2 each time. As to `NC(=O)c1cnccn1`, the MIC in assay [1] was found to be 3.12 µg/mL (≈ 25.3 µM). Consider `O=C(CNc1ccc(Br)cc1)Nc1cccc(C(=O)O)c1`, for which the MIC in assay [1] was 3.12 µg/mL (≈ 8.94 µM).

For the compound `O=C(CN1CCCC1)Nc1cccc(C(=O)O)c1`, the MIC in assay [1] stood at 1.6 µg/mL (≈ 6.44 µM). For the same compound, the Ratio in assay [2], in assay [3] and in assay [4] was more than 2 in each case. For the compound `CN1CCN(CC(=O)Nc2cccc(C(=O)O)c2)CC1`, the MIC in assay [1] was found to be 1.6 µg/mL (≈ 5.77 µM). For the same compound, the Ratio in assay [2], in assay [3] and in assay [4] was more than 2 throughout. In the case of `O=C(CN1CCOCC1)Nc1cccc(C(=O)Nc2ccc3[nH]cnc(=O)c3c2)c1`, the MIC in assay [1] came to 100 µg/mL (≈ 245 µM).

For the compound `O=C(CN1CCN(Cc2ccccc2)CC1)Nc1cccc(C(=O)O)c1`, the MIC in assay [1] stood at 3.12 µg/mL (≈ 8.83 µM).

As for `O=C(CNc1ccc(Cl)cc1)Nc1cccc(C(=O)O)c1`, in assay [1], the MIC was determined as 6.25 µg/mL (≈ 20.5 µM). `O=C(CN1CCOCC1)Nc1cccc(C(=O)O)c1`: the MIC in assay [1] worked out at 25 µg/mL (≈ 94.6 µM). The same measure, in the same setting: for `CN[C@@H]1[C@H](O[C@H]2[C@H](O[C@H]3[C@H](O)[C@@H](O)[C@H](N=C(N)N)[C@@H](O)[C@@H]3N=C(N)N)O[C@@H](C)[C@]2(O)C=O)O[C@@H](CO)[C@H](O)[C@H]1O` the value was 6.25 µg/mL (≈ 10.7 µM); for `CCN(CC)CC(=O)Nc1cccc(C(=O)O)c1`, 3.12 µg/mL (≈ 12.5 µM).

With `O=C(CN1CCN(c2ccccc2)CC1)Nc1cccc(C(=O)O)c1`, in assay [1], the MIC amounted to 1.6 µg/mL (≈ 4.71 µM). For the same compound, the Ratio in assay [2], in assay [3] and in assay [4] was more than 2 each time. As to `Cc1ccc(NCC(=O)Nc2cccc(C(=O)O)c2)cc1`, the MIC in assay [1] stood at 6.25 µg/mL (≈ 22 µM).

`O=C(O)c1cn(C2CC2)c2cc(N3CCNCC3)c(F)cc2c1=O`: in assay [1], the MIC is 3.12 µg/mL (≈ 9.42 µM).
